The results in this text go back to patent publication US11761045B2, “Splice variants associated with neomorphic SF3B1 mutants” (Eisai R&D Management Co., Ltd., priority 2015, dated 2023).

For one assay, the target named is SF3B1^WT (Homo sapiens, UniProt O75533+Q7RTV0). Nature of the assay: Competitive binding assay (SPA, 3H-probe molecule) with Flag-tag SF3B1 from 293F cells. Also noted: expressed in transfected cells; host or cells: 293F cells (Life Technologies), transient transfection with pFLAG-CMV-2-SF3B1. Particulars: one nM 3H-probe; Flag-tag SF3B1^WT from transfected 293F cells; read-out: IC50, competitive inhibition of binding of the 3H-probe molecule. How it is done:
The ability of E7107 to bind both SF3B1^WT and SF3B1^K700E proteins was evaluated in a competitive binding assay using Flag-tag SF3B1 proteins immunoprecipitated with anti-Flag antibody from transiently transfected 293F cells. Batch immobilization of antibody to beads was prepared by incubating 80 μg of anti-SF3B1 antibody (MBL International) and 24 mg anti-mouse PVT SPA scintillation beads (PerkinElmer) for 30 minutes. After centrifugation, the antibody-bead mixture was resuspended in PBS supplemented with PhosSTOP phosphatase inhibitor cocktail (Roche) and complete ULTRA protease inhibitor cocktail (Roche). Nuclear extracts were prepared by diluting 40 mg into a total volume of 16 mL PBS with phosphatase and protease inhibitors, and the mixture was centrifuged. The supernatant was transferred into a clean tube, and the antibody-bead mixture was added and incubated for two hours. The beads were collected by centrifuging, washed twice with PBS+0.1% Triton X-100, and resuspended with 4.8 mL of PBS. 100 μL binding reactions were prepared using slurry and varying concentrations of E7107. […] The mixture was incubated at room temperature for 15 minutes, and luminescence signals were read using a MicroBeta2 Plate Counter (PerkinElmer).

Assay [1] concerns neomorphic SF3B1^MUT CLL patient samples. The experiment in a line: Splicing inhibition in CLL patient samples in vitro by RNA-Seq. It is filed as cell-based, human. Particulars: 10 nM, 6 hours. The protocol: The ability of E7107 to inhibit splicing in CLL patient samples in vitro was determined by isolating RNA from samples of E7107-treated patient cells treated for 6 hours with E7107 at 10 nM and performing RNA-Seq analysis. To do so, cells were washed with PBS after treatment with E7107, and RNA was isolated using PureLink (Life Technology) as reported in the manufacturer's manual. cDNA library preparation, sequencing and raw read filtering was performed as described in Ren, S. et al. “RNA-Seq analysis of prostate cancer in the Chinese population identifies recurrent gene fusions, cancer-associated long noncoding RNAs and aberrant alternative splicings.” Cell Res 22, 806-821, doi:10.1038/cr.2012.30 (2012).

Another assay has as its target SF3B1^K700E (Homo sapiens, UniProt O75533+Q7RTV0, K700E). Nature of the assay: In vitro splicing assay (IVS), Ad2 pre-mRNA substrate, nuclear extracts. The assay is classed as biochemical. Particulars: nuclear extracts from Nalm-6 SF3B1^K700E cells or 293F cells expressing Flag-tag SF3B1^K700E. Details: expressed in transfected cells; host or cells: nuclear extract of 293F cells transfected with pFLAG-CMV-2-SF3B1 K700E (the same assay was also run with Nalm-6 SF3B1 K700E nuclear extract). How it is done: E7107 is a small-molecule compound that inhibits splicing by targeting the U2 snRNP-associated complex SF3B (Kotake, Y. et al. “Splicing factor SF3b as a target of the antitumor natural product pladienolide.” Nat Chem Biol 3, 570-575, doi:10.1038/nchembio.2007.16 [2007]).
Nuclear extracts were prepared from 293F cells transfected with pFLAG-CMV-2-SF3B1 plasmids, or from isogenic Nalm-6 cells (SBH Sciences). The plasmids were generated by cloning the mxSF3B1 gene into the HindIII and KpnI sites of pFLAG-CMV2 (Sigma), and the mutations mxSF3B1^K700E, mxsF3B1^R1074H and mxSF3B1^K700E-R1074H were introduced using […]. Cell pellets were resuspended in hypotonic buffer (10 mM HEPES pH 7.9, 1.5 mM MgCl2, 10 mM KCl, 0.2 mM PMSF, and 0.5 mM DTT; for Nalm-6 cells, 40 mM KCl was used). The suspension was brought up to a total of five packed cell volumes (PCV). After centrifugation, the supernatant was discarded, and the cells were brought up to 3 PCV with hypotonic buffer, and incubated on ice for 10 minutes. Cells were lysed using a dounce homogenizer and then centrifuged. […] Protein concentration was determined using NanoDrop 8000 UV-Vis spectrophotometer (Thermo Scientific). […]

SF3B1^WT, sequence (Q15393 whole entry): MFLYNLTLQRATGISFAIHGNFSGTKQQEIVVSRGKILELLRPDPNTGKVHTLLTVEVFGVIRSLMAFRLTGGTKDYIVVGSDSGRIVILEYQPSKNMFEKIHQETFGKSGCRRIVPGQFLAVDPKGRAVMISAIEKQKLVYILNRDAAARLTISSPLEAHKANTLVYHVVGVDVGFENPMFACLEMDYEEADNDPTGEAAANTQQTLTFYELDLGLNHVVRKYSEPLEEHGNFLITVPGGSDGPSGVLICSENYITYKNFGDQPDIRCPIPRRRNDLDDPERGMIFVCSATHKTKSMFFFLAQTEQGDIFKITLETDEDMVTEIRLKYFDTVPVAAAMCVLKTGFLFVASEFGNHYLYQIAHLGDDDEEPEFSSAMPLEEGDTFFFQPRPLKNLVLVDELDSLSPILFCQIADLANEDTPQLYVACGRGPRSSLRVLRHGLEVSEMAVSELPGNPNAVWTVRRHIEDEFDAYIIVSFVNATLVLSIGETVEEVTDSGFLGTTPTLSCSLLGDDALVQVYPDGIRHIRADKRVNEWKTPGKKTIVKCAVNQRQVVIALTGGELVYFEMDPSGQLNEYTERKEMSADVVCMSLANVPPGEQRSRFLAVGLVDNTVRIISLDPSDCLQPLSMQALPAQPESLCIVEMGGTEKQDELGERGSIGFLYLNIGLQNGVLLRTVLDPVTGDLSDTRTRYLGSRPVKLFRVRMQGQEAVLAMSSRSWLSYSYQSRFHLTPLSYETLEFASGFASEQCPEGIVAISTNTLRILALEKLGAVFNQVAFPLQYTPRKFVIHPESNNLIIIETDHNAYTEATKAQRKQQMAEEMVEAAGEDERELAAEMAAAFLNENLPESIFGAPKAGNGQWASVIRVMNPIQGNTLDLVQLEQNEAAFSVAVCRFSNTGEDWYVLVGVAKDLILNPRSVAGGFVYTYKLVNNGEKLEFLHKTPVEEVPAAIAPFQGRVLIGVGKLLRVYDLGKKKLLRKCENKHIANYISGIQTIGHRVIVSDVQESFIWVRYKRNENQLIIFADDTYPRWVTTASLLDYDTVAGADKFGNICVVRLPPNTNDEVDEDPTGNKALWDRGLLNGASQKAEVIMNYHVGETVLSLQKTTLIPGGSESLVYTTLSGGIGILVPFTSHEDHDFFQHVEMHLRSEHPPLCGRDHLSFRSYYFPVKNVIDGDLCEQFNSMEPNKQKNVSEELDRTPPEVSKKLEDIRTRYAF
SF3B1^WT, sequence (Q9BWJ5 whole entry, further chain): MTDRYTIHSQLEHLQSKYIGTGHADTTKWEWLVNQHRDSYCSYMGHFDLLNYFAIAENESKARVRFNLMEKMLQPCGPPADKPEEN
SF3B1^WT, sequence (Q7RTV0 whole entry): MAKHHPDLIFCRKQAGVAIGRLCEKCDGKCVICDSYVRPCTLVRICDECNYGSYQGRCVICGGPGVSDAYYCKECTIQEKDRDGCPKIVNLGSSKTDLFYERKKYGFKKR
SF3B1^WT, sequence (O75533 whole entry): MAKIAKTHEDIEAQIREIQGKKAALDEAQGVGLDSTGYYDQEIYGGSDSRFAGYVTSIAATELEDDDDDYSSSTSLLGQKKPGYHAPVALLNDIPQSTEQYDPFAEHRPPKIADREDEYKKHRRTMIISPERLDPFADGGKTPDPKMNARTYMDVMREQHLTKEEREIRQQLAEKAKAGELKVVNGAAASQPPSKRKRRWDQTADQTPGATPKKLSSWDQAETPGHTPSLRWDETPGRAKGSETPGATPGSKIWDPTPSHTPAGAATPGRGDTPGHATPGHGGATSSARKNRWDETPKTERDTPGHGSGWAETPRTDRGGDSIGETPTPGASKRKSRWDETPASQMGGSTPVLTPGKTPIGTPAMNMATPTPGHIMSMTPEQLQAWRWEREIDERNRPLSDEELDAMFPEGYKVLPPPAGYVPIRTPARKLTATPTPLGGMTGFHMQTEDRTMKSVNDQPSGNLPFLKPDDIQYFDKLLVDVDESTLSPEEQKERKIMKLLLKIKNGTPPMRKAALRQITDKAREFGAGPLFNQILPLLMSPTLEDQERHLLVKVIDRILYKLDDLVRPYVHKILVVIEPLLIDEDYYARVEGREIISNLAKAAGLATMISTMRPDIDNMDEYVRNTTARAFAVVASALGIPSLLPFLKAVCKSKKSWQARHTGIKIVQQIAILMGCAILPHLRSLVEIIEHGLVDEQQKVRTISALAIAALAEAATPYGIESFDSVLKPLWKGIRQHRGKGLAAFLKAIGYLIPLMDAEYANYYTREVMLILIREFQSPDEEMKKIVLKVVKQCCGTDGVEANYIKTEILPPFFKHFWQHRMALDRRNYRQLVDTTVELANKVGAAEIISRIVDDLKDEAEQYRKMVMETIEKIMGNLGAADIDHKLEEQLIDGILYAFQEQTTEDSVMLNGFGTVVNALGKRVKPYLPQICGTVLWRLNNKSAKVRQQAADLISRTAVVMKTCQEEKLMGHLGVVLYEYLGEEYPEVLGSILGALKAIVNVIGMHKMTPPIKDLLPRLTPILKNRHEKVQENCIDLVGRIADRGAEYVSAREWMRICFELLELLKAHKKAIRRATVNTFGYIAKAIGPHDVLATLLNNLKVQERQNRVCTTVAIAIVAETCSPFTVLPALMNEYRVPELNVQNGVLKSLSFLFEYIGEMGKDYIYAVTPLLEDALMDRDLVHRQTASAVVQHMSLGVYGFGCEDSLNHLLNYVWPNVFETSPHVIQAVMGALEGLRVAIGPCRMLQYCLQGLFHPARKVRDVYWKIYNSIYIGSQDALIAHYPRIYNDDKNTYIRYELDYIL

In general, IC50 refers to the concentration at which inhibition is half-maximal. Take `CC[C@H](O)[C@@H](C)[C@H]1O[C@@H]1C[C@@](C)(O)/C=C/C=C(\C)[C@H]1OC(=O)C[C@H](O)CC[C@@](C)(O)[C@@H](OC(=O)N2CCN(C3CCCCCC3)CC2)/C=C/[C@@H]1C` [Compound E7107]: the IC50 on SF3B1^WT came out at 13 nM. Besides, the “expression of canonical splice isoforms” value in assay [1] was “inhibited the expression of canonical splice isoforms”. In addition, in assay [1] (all samples carrying neomorphic SF3B1 mutations), the aberrant splicing entry is listed as “able to modulate aberrant splicing”. Moreover, the “inhibition of splicing of Ad2 pre-mRNA in nuclear extracts” value on SF3B1^K700E is reported as “able to inhibit splicing”.
